{"source": "the NIST ThermoML archive (doi:10.1021/je200302h)", "settings": "Liquid, Drop weight", "note": "Numbers after ± are expanded uncertainties.", "data": [{"smiles": "O=C=O", "note": "[carbon dioxide] + O", "values": [{"measurement": "interfacial tension", "setting": "298.15 K, 8380 kPa", "result": "25.65 ± 0.42", "unit": "mN/m"}, {"measurement": "interfacial tension", "setting": "298.15 K, 10440 kPa", "result": "25.15 ± 0.28", "unit": "mN/m"}, {"measurement": "interfacial tension", "setting": "298.15 K, 13890 kPa", "result": "24.85 ± 0.29", "unit": "mN/m"}, {"measurement": "interfacial tension", "setting": "298.15 K, 17340 kPa", "result": "24.9 ± 0.3", "unit": "mN/m"}, {"measurement": "interfacial tension", "setting": "298.15 K, 20790 kPa", "result": "25 ± 1", "unit": "mN/m"}, {"measurement": "interfacial tension", "setting": "313.15 K, 8380 kPa", "result": "22.23 ± 0.58", "unit": "mN/m"}, {"measurement": "interfacial tension", "setting": "313.15 K, 10440 kPa", "result": "22.16 ± 0.6", "unit": "mN/m"}, {"measurement": "interfacial tension", "setting": "313.15 K, 13890 kPa", "result": "23.33 ± 0.46", "unit": "mN/m"}, {"measurement": "interfacial tension", "setting": "313.15 K, 17340 kPa", "result": "23.41 ± 0.46", "unit": "mN/m"}, {"measurement": "interfacial tension", "setting": "313.15 K, 20790 kPa", "result": "25.07 ± 0.53", "unit": "mN/m"}, {"measurement": "interfacial tension", "setting": "323.15 K, 10440 kPa", "result": "23.05 ± 0.57", "unit": "mN/m"}, {"measurement": "interfacial tension", "setting": "323.15 K, 13890 kPa", "result": "22.74 ± 0.68", "unit": "mN/m"}, {"measurement": "interfacial tension", "setting": "323.15 K, 17340 kPa", "result": "24.27 ± 0.78", "unit": "mN/m"}, {"measurement": "interfacial tension", "setting": "323.15 K, 20790 kPa", "result": "23.5 ± 0.4", "unit": "mN/m"}, {"measurement": "interfacial tension", "setting": "333.15 K, 13890 kPa", "result": "23.36 ± 0.51", "unit": "mN/m"}, {"measurement": "interfacial tension", "setting": "333.15 K, 17340 kPa", "result": "23.58 ± 0.69", "unit": "mN/m"}, {"measurement": "interfacial tension", "setting": "333.15 K, 20790 kPa", "result": "22.8 ± 0.6", "unit": "mN/m"}]}]}
